# From PubChem BioAssay (NCI)
#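 Values below derive from 48-hour exposures of cells grown in 96-well plates, with endpoints linearly interpolated between the two concentrations bracketing the appropriate inhibition level. TGI: concentration producing complete growth inhibition.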
# Key:
# Test in all cases: growth of human tumour cells (NCI), 48 h
# ACHN renal = system: ACHN renal
# HCT-15 colon = system: HCT-15 colon
# CAKI-1 renal = system: CAKI-1 renal
# OVCAR-5 ovarian = system: OVCAR-5 ovarian
# SK-MEL-28 melanoma = system: SK-MEL-28 melanoma
# DMS 114 small cell lung = system: DMS 114 small cell lung
# CCRF-CEM leukemia = system: CCRF-CEM leukemia
# SF-295 CNS = system: SF-295 CNS
# NCI-H23 lung = system: NCI-H23 lung
# UACC-257 melanoma = system: UACC-257 melanoma
# LOX IMVI melanoma = system: LOX IMVI melanoma
# MALME-3M melanoma = system: MALME-3M melanoma
# COLO 205 colon = system: COLO 205 colon
# IGROV1 ovarian = system: IGROV1 ovarian
# KM12 colon = system: KM12 colon
# SW-620 colon = system: SW-620 colon
# HOP-18 NSCLC = system: HOP-18 NSCLC
# DLD-1 colon = system: DLD-1 colon
# HL-60(TB) leukemia = system: HL-60(TB) leukemia
# U251 CNS = system: U251 CNS
structure (smiles),measurement,setting,value
CC/C(CC(=O)CCC(=O)Nc1ccc(C)c(C)c1)=N\NC(=O)c1cc2ccccc2cc1O,TGI,ACHN renal,> 100 µM
same,TGI,HCT-15 colon,> 100 µM
same,TGI,CAKI-1 renal,> 100 µM
same,TGI,OVCAR-5 ovarian,> 100 µM
same,TGI,SK-MEL-28 melanoma,46.9 µM
same,TGI,DMS 114 small cell lung,> 100 µM
same,TGI,CCRF-CEM leukemia,> 100 µM
same,TGI,SF-295 CNS,> 100 µM
same,TGI,NCI-H23 lung,89.4 µM
same,TGI,UACC-257 melanoma,> 100 µM
same,TGI,LOX IMVI melanoma,81.1 µM
same,TGI,MALME-3M melanoma,92.6 µM
same,TGI,COLO 205 colon,> 100 µM
same,TGI,IGROV1 ovarian,57.5 µM
same,TGI,KM12 colon,> 100 µM
same,TGI,SW-620 colon,> 100 µM
same,TGI,HOP-18 NSCLC,88.1 µM
same,TGI,DLD-1 colon,> 100 µM
same,TGI,HL-60(TB) leukemia,8.68 µM
same,TGI,U251 CNS,> 100 µM
